According to paper PMC3827032, “Functional Analysis of Hsp70 Inhibitors” (PLoS ONE, 2013):

Assays:
Hsp70 [1] = target: T1, Hsp70 (Homo sapiens, UniProt P0DMV8); assay: ITC ([…]), SPR ([…]), DSC (Tm +[…]°C); assay type: binding; set-up: gene HSPA1A; full-length, nucleotide-free
Hsp70 [2] = target: T1, Hsp70; set-up: gene HSPA1A
Hsp70 [3] = target: T1, Hsp70; assay: crystal structure of NBD ([…] Å), ITC ([…]), SPR ([…]), DSC, ATPase inhibition (Ki […]; […] with Hdj1); assay type: binding; set-up: gene HSPA1A; full-length (ITC, SPR); NBD residues 1–382 (crystal structure)

T1 sequence (P0DMV8 2-641): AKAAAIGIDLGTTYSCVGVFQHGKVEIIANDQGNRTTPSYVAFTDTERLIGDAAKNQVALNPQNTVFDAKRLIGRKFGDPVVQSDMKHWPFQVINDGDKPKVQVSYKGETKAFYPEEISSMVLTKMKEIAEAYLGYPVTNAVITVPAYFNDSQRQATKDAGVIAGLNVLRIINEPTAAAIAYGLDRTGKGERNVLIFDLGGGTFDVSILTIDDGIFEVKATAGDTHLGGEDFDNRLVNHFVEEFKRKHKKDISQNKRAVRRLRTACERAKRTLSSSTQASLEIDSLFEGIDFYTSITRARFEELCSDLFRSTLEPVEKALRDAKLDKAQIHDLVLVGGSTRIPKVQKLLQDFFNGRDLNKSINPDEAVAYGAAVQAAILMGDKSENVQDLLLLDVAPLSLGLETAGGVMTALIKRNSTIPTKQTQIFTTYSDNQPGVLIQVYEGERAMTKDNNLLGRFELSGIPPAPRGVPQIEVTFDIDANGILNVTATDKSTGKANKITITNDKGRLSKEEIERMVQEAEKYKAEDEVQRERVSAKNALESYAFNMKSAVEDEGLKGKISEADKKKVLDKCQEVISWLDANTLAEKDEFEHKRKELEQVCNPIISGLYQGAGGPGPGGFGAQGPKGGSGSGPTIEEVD

Nc1ncnc2c1ncn2[C@@H]1O[C@H](COP(=O)(O)OP(=O)(O)O)[C@@H](O)[C@H]1O [ADP]
Kd (Hsp70 [1]): 7.7 ± 0.4 nM

Nc1ncnc2c1ncn2[C@@H]1O[C@H](COP(=O)(O)OP(=O)(O)OP(=O)(O)O)[C@@H](O)[C@H]1O [ATP]
Km (Hsp70 [2]): 9.9 ± 1.3 µM

N#Cc1ccc(COC[C@H]2O[C@@H](n3c(NCc4ccc(Cl)c(Cl)c4)nc4c(N)ncnc43)[C@H](O)[C@@H]2O)cc1 [VER-155008]
Kd (Hsp70 [3]): 228 ± 16 nM
